Source: ChEMBL document CHEMBL4507319 (2021)

What was measured:
Settings in all cases: Compound concentration 1000.0 nM
[1] = molecular target: T1, Inhibitor of nuclear factor kappa-B kinase subunit alpha (Homo sapiens) (UniProt O15111)
T1 sequence (whole entry): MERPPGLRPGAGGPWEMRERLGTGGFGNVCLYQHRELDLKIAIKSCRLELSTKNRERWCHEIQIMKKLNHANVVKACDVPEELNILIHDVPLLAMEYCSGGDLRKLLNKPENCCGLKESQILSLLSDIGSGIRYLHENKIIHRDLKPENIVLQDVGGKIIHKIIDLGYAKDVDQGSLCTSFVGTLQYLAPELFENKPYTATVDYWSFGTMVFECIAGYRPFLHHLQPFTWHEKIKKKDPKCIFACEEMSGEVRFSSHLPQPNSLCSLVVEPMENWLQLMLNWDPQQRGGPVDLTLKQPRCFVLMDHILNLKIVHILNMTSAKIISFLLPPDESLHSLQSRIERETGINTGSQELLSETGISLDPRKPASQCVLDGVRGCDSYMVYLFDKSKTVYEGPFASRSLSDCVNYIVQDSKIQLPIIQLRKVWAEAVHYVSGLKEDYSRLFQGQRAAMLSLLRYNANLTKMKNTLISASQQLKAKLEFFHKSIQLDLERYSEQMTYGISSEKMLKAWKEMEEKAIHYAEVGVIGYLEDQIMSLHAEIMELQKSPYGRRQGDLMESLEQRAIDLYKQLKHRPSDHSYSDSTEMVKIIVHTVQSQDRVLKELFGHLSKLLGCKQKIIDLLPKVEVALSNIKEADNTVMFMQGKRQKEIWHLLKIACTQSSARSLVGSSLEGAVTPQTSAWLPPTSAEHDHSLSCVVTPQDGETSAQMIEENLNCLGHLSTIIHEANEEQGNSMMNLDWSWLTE

[2] = molecular target: T2, cGMP-dependent protein kinase 2 (Homo sapiens) (UniProt Q13237)
T2 sequence (whole entry): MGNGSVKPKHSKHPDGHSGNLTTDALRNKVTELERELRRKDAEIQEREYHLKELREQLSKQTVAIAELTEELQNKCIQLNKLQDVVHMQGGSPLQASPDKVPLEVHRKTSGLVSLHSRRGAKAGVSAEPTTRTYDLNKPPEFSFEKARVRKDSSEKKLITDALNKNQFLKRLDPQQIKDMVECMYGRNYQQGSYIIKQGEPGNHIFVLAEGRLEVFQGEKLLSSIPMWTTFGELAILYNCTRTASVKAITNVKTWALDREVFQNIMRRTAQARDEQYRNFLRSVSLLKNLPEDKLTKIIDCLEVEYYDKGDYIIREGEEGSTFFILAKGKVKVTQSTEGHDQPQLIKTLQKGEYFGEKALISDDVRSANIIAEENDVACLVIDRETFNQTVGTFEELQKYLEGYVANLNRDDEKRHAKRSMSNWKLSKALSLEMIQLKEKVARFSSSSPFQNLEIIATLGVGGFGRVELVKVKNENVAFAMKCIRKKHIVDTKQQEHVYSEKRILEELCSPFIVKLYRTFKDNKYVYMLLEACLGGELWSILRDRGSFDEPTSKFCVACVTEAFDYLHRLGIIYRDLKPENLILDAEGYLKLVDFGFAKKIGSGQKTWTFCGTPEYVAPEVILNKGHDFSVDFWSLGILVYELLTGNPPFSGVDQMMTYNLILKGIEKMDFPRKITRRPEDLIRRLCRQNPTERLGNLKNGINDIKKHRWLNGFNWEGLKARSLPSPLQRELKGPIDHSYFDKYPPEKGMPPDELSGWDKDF

[3] = molecular target: Casein kinase II subunit alpha (Homo sapiens) (UniProt P68400)
Sequence of Casein kinase II subunit alpha (Homo sapiens) (P68400 whole entry, looked up): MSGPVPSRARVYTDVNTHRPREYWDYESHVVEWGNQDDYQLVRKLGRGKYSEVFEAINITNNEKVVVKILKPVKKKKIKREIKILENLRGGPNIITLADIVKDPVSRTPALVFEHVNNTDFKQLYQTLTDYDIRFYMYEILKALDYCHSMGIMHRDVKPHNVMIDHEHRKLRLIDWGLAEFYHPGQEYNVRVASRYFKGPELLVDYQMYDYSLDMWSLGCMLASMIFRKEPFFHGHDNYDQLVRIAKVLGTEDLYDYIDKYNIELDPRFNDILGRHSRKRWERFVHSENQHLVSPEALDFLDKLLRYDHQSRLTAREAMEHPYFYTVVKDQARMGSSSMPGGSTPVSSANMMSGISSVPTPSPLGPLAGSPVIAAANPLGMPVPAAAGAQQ

[4] = molecular target: Mitogen-activated protein kinase 11 (Homo sapiens) (UniProt Q15759)
Sequence of Mitogen-activated protein kinase 11 (Homo sapiens) (Q15759 whole entry, the tested form may be a part): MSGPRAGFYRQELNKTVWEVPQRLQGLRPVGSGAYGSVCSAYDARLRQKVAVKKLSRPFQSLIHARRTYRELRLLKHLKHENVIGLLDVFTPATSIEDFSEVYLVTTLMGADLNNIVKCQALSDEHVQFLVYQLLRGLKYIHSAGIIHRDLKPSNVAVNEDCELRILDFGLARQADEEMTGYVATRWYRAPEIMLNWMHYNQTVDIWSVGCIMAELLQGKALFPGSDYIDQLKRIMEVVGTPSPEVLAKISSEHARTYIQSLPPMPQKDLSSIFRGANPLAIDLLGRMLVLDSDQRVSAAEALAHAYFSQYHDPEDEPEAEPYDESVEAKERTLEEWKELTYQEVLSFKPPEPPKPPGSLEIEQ

[5] = molecular target: T3, Phosphatidylinositol 3-kinase C2 domain-containing subunit gamma (Homo sapiens) (UniProt O75747)
T3 sequence (whole entry): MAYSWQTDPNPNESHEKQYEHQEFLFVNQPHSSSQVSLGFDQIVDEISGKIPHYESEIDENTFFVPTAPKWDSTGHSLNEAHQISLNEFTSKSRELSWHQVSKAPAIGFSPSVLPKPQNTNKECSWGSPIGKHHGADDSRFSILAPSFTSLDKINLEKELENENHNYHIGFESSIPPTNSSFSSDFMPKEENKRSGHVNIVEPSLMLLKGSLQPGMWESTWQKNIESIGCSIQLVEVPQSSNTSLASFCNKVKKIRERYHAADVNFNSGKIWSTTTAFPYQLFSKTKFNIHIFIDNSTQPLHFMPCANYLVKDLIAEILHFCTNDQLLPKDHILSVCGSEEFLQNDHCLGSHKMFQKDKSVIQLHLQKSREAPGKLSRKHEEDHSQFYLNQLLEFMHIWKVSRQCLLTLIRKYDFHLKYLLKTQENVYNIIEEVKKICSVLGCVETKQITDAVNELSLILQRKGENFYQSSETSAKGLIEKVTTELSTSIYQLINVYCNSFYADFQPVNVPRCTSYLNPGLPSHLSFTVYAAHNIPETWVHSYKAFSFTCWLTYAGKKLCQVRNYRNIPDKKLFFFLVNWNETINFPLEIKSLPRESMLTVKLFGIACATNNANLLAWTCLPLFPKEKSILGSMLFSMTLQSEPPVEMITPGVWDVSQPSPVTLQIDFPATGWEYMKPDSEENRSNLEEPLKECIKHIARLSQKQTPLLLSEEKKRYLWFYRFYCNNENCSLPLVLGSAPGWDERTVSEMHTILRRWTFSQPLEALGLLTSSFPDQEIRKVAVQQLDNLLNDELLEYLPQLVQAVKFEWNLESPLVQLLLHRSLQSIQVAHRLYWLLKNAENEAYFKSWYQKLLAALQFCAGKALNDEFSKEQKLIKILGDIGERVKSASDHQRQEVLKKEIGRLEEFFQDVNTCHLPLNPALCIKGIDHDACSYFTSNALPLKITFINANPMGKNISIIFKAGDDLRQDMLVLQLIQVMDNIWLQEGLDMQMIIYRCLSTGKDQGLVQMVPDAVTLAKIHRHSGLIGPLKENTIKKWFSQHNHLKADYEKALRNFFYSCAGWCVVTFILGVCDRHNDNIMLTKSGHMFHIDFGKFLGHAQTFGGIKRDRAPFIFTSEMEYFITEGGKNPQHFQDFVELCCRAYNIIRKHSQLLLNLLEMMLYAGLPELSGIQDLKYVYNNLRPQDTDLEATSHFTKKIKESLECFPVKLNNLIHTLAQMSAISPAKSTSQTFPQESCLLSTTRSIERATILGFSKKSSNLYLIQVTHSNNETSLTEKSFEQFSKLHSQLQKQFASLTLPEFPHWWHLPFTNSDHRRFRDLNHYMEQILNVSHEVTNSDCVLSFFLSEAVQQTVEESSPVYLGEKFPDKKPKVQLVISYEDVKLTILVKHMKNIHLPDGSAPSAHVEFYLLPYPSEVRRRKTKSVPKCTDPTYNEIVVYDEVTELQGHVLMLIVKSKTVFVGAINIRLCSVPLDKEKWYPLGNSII

Measured: residual activity

CCc1ccccc1C(=O)Nc1n[nH]c2c(C)c(F)c(C3C(C#N)=C(C)N(C)C(C)=C3C#N)cc12 [BAY-3827]
inactive: [1] 87% | [2] 100% | [3] 100% | [4] 91% | [5] 95%

CC1=C(C#N)C(c2ccc3c(c2)c(NC(=O)c2ccccc2C)nn3C)C(C#N)=C(C)N1 [BAY-974]
inactive: [1] 77% | [2] 72% | [3] 63% | [4] 100% | [5] 61%
